Reference: ChEMBL document CHEMBL3046161, “Synthesis of potential antitubercular and antimicrobial s-triazine-based scaffolds via Suzuki cross-coupling reaction” (2013)
Converted amounts (≈) assume the structure as drawn.

What was measured:
Type in all cases: functional
[1] = test system: Aspergillus clavatus; assay: Antifungal activity against Aspergillus clavatus MTCC 1323 assessed as growth inhibition at 3.12 to 50 ug/mL after 24 hr by agar disk diffusion method
[2] = test system: Bacillus cereus; assay: Antibacterial activity against Bacillus cereus MTCC 430 assessed as growth inhibition at 3.12 to 50 ug/mL after 24 hr by agar disk diffusion method
[3] = test system: Mycobacterium tuberculosis; assay: Antimycobacterial activity against Mycobacterium tuberculosis H37Rv assessed as growth inhibition at MIC after 12 to 28 days by Lowenstein and Jensen agar dilution method
[4] = test system: Pseudomonas aeruginosa; assay: Antibacterial activity against Pseudomonas aeruginosa MTCC 741 assessed as growth inhibition at 3.12 to 50 ug/mL after 24 hr by agar disk diffusion method
[5] = test system: Escherichia coli; assay: Antibacterial activity against Escherichia coli MTCC 739 assessed as growth inhibition after 24 hr by agar streak dilution method; details: MTCC 739, 24 h
[6] = test system: Klebsiella pneumoniae; assay: Antibacterial activity against Klebsiella pneumoniae MTCC 109 assessed as growth inhibition at 3.12 to 50 ug/mL after 24 hr by agar disk diffusion method
[7] = test system: Aspergillus clavatus; assay: Antifungal activity against Aspergillus clavatus MTCC 1323 assessed as growth inhibition after 48 hr by agar streak dilution method; details: MTCC 1323, 48 h
[8] = test system: Candida albicans; assay: Antifungal activity against Candida albicans MTCC 183 assessed as growth inhibition at 3.12 to 50 ug/mL after 24 hr by agar disk diffusion method
[9] = test system: Escherichia coli; assay: Antibacterial activity against Escherichia coli MTCC 739 assessed as growth inhibition at 3.12 to 50 ug/mL after 24 hr by agar disk diffusion method
[10] = test system: Aspergillus fumigatus; assay: Antifungal activity against Aspergillus fumigatus MTCC 343 assessed as growth inhibition at 3.12 to 50 ug/mL after 24 hr by agar disk diffusion method
[11] = test system: Aspergillus niger; assay: Antifungal activity against Aspergillus niger MTCC 282 assessed as growth inhibition after 48 hr by agar streak dilution method; details: MTCC 282, 48 h
[12] = test system: Staphylococcus aureus; assay: Antibacterial activity against Staphylococcus aureus MTCC 96 assessed as growth inhibition after 24 hr by agar streak dilution method; details: MTCC 96, 24 h
[13] = test system: Proteus vulgaris; assay: Antibacterial activity against Proteus vulgaris MTCC 1771 assessed as growth inhibition after 24 hr by agar streak dilution method; details: MTCC 1771, 24 h
[14] = test system: Salmonella typhi; assay: Antibacterial activity against Salmonella enterica subsp. enterica serovar Typhi MTCC 733 assessed as growth inhibition at 3.12 to 50 ug/mL after 24 hr by agar disk diffusion method
[15] = test system: Pseudomonas aeruginosa; assay: Antibacterial activity against Pseudomonas aeruginosa MTCC 741 assessed as growth inhibition after 24 hr by agar streak dilution method; details: MTCC 741, 24 h
[16] = test system: Mycobacterium tuberculosis; assay: Antimycobacterial activity against Mycobacterium tuberculosis H37Rv assessed as growth inhibition at MIC measured within 10 days by BACTEC MGIT method
[17] = test system: Bacillus cereus; assay: Antibacterial activity against Bacillus cereus MTCC 430 assessed as growth inhibition after 24 hr by agar streak dilution method; details: MTCC 430, 24 h
[18] = test system: Candida albicans; assay: Antifungal activity against Candida albicans MTCC 183 assessed as growth inhibition after 48 hr by agar streak dilution method; details: MTCC 183, 48 h
[19] = test system: Mycobacterium tuberculosis; assay: Antimycobacterial activity against Mycobacterium tuberculosis H37Rv assessed as growth inhibition after 12 to 28 days by Lowenstein and Jensen agar dilution method
[20] = test system: Salmonella typhi; assay: Antibacterial activity against Salmonella enterica subsp. enterica serovar Typhi MTCC 733 assessed as growth inhibition after 24 hr by agar streak dilution method; details: MTCC 733, 24 h
[21] = test system: Aspergillus niger; assay: Antifungal activity against Aspergillus niger MTCC 282 assessed as growth inhibition at 3.12 to 50 ug/mL after 24 hr by agar disk diffusion method
[22] = test system: Proteus vulgaris; assay: Antibacterial activity against Proteus vulgaris MTCC 1771 assessed as growth inhibition at 3.12 to 50 ug/mL after 24 hr by agar disk diffusion method
[23] = test system: Staphylococcus aureus; assay: Antibacterial activity against Staphylococcus aureus MTCC 96 assessed as growth inhibition at 3.12 to 50 ug/mL after 24 hr by agar disk diffusion method
[24] = test system: Shigella flexneri; assay: Antibacterial activity against Shigella flexneri MTCC 1457 assessed as growth inhibition at 3.12 to 50 ug/mL after 24 hr by agar disk diffusion method
[25] = test system: Klebsiella pneumoniae; assay: Antibacterial activity against Klebsiella pneumoniae MTCC 109 assessed as growth inhibition after 24 hr by agar streak dilution method; details: MTCC 109, 24 h
[26] = test system: Aspergillus fumigatus; assay: Antifungal activity against Aspergillus fumigatus MTCC 343 assessed as growth inhibition after 48 hr by agar streak dilution method; details: MTCC 343, 48 h
[27] = test system: Mycobacterium tuberculosis; assay: Antimycobacterial activity against Mycobacterium tuberculosis H37Rv assessed as growth inhibition measured within 10 days by BACTEC MGIT method; details: 240 h
[28] = test system: Shigella flexneri; assay: Antibacterial activity against Shigella flexneri MTCC 1457 assessed as growth inhibition after 24 hr by agar streak dilution method; details: MTCC 1457, 24 h
[29] = test system: Aspergillus fumigatus; assay: Antifungal activity against Aspergillus fumigatus MTCC 343 assessed as growth inhibition at 100 ug/disk after 24 hr by agar disk diffusion method; details: MTCC 343, 24 h, read-out: IZ
[30] = test system: Aspergillus niger; assay: Antifungal activity against Aspergillus niger MTCC 282 assessed as growth inhibition at 100 ug/disk after 24 hr by agar disk diffusion method; details: MTCC 282, 24 h, read-out: IZ
[31] = test system: Aspergillus clavatus; assay: Antifungal activity against Aspergillus clavatus MTCC 1323 assessed as growth inhibition at 100 ug/disk after 24 hr by agar disk diffusion method; details: MTCC 1323, 24 h, read-out: IZ
[32] = test system: Candida albicans; assay: Antifungal activity against Candida albicans MTCC 183 assessed as growth inhibition at 100 ug/disk after 24 hr by agar disk diffusion method; details: MTCC 183, 24 h, read-out: IZ

**Q.** `COc1ccc(NC(=O)CNc2ccc(-c3nc(N4CC(C)CC(C)C4)nc(N4CC(C)CC(C)C4)n3)cc2)cc1` (centres undefined) was tested. Which “inhibition zone (IZ)” value [1] did it give?
**A.** Its value is under 10 mm.

**Q.** And the “inhibition zone (IZ)” value [2]?
**A.** The value was 23 mm.

**Q.** What about the “growth inhibition (GI)” value [3] of the same compound?
**A.** The value was 99%.

**Q.** And the “inhibition zone (IZ)” value [4]?
**A.** Its value is 22 mm.

**Q.** What about the MIC [5] of the same compound?
**A.** The MIC was 50 µg/mL (≈ 89.6 µM).

**Q.** What about the “inhibition zone (IZ)” value [6] of the same compound?
**A.** The value was under 10 mm.

**Q.** And the MIC [7]?
**A.** Its MIC is over 50 µg/mL.

**Q.** And the “inhibition zone (IZ)” value [8]?
**A.** Its value is 21 mm.

**Q.** What about the “inhibition zone (IZ)” value [9] of the same compound?
**A.** The value was 19 mm.

**Q.** And the “inhibition zone (IZ)” value [10]?
**A.** Its value is under 10 mm.

**Q.** And the MIC [11]?
**A.** Its MIC is 50 µg/mL (≈ 89.6 µM).

**Q.** What about the MIC [12] of the same compound?
**A.** Its MIC is 50 µg/mL (≈ 89.6 µM).

**Q.** What about the MIC [13] of the same compound?
**A.** Its MIC is 25 µg/mL (≈ 44.8 µM).

**Q.** And the “inhibition zone (IZ)” value [14]?
**A.** Its value is 20 mm.

**Q.** And the MIC [15]?
**A.** Its MIC is 50 µg/mL (≈ 89.6 µM).

**Q.** And the “growth inhibition (GI)” value [16]?
**A.** The value was 99%.

**Q.** And the MIC [17]?
**A.** The MIC was 25 µg/mL (≈ 44.8 µM).

**Q.** And the MIC [18]?
**A.** Its MIC is 25 µg/mL (≈ 44.8 µM).

**Q.** And the MIC [19]?
**A.** Its MIC is 6.25 µg/mL (≈ 11.2 µM).

**Q.** And the MIC [20]?
**A.** The MIC was 25 µg/mL (≈ 44.8 µM).

**Q.** What about the “inhibition zone (IZ)” value [21] of the same compound?
**A.** The value was 14 mm.

**Q.** And the “inhibition zone (IZ)” value [22]?
**A.** Its value is 22 mm.

**Q.** And the “inhibition zone (IZ)” value [23]?
**A.** Its value is 16 mm.

**Q.** What about the “inhibition zone (IZ)” value [24] of the same compound?
**A.** The value was 19 mm.

**Q.** And the MIC [25]?
**A.** The MIC was 50 µg/mL (≈ 89.6 µM).

**Q.** And the MIC [26]?
**A.** The MIC was over 50 µg/mL.

**Q.** What about the MIC [27] of the same compound?
**A.** Its MIC is 6.25 µg/mL (≈ 11.2 µM).

**Q.** And the MIC [28]?
**A.** The MIC was 50 µg/mL (≈ 89.6 µM).

**Q.** `CC[C@@H](CO)NCCN[C@@H](CC)CO` [ETHAMBUTOL] was tested. Which “growth inhibition (GI)” value [16] did it give?
**A.** Its value is 99%.

**Q.** And the MIC [27]?
**A.** The MIC was 3.12 µg/mL (≈ 15.3 µM).

**Q.** For `NNC(=O)c1ccncc1` [ISONIAZID], which “growth inhibition (GI)” value [16] is on record?
**A.** Its value is 99%.

**Q.** And the MIC [27]?
**A.** Its MIC is 0.2 µg/mL (≈ 1.46 µM).

**Q.** Which results are given for `CC(=O)N1CCN(c2ccc(OCC3COC(Cn4ccnc4)(c4ccc(Cl)cc4Cl)O3)cc2)CC1` (centres undefined) [KETOCONAZOLE]?
**A.** zone of inhibition at 100 µg/disc [29]: 29 mm; MIC [7]: 0.78 µg/mL (≈ 1.47 µM); MIC [11]: 1.56 µg/mL (≈ 2.94 µM); zone of inhibition at 100 µg/disc [30]: 30 mm; MIC [18]: 1.56 µg/mL (≈ 2.94 µM); zone of inhibition at 100 µg/disc [31]: 31 mm; MIC [26]: 0.78 µg/mL (≈ 1.47 µM); zone of inhibition at 100 µg/disc [32]: 33 mm

**Q.** For `NC(=O)c1cnccn1` [PYRAZINAMIDE], which “growth inhibition (GI)” value [16] is on record?
**A.** The value was 99%.

**Q.** And the MIC [27]?
**A.** The MIC was 6.25 µg/mL (≈ 50.8 µM).

**Q.** For `CO[C@H]1/C=C/O[C@@]2(C)Oc3c(C)c(O)c4c(O)c(c(/C=N/N5CCN(C)CC5)c(O)c4c3C2=O)NC(=O)/C(C)=C\C=C\[C@H](C)[C@H](O)[C@@H](C)[C@@H](O)[C@@H](C)[C@H](OC(C)=O)[C@@H]1C` [RIFAMPIN], which “growth inhibition (GI)” value [16] is on record?
**A.** Its value is 99%.

**Q.** What about the MIC [27] of the same compound?
**A.** Its MIC is 0.25 µg/mL (≈ 0.304 µM).
